Here are results for 24 compounds from ChEMBL document CHEMBL3621092, “Lipid-conjugated Smac analogues” (Bioorg Med Chem Lett, 2015).

Structures are written as SMILES.

One data set relates to MDA-MB-231. The data set is described as follows: Induction of apoptosis in human MDA-MB-231 cells assessed as increase in caspase-3/7 activity incubated for 24 hrs by luminescence based assay relative to control. The format is functional.
Settings: not given
In the case of `CN[C@@H](C)C(=O)N[C@@H](CSCc1ccc(-c2ccc(CSC[C@H](NC(=O)[C@H](C)NC)C(=O)N3CCC[C@H]3C(=O)NC(c3ccccc3)c3ccccc3)cc2)cc1)C(=O)N1CCC[C@H]1C(=O)NC(c1ccccc1)c1ccccc1`, the “fold change (FC)” value stood at 2.7. Take `CN[C@@H](C)C(=O)N[C@@H](CCCCNc1cc(NCCCC[C@H](NC(=O)[C@H](C)NC)C(=O)N2CCC[C@H]2C(=O)NC(c2ccccc2)c2ccccc2)c([N+](=O)[O-])cc1[N+](=O)[O-])C(=O)N1CCC[C@H]1C(=O)NC(c1ccccc1)c1ccccc1`: the “fold change (FC)” value turned out to be 2.7.

Tested on in a further data set: not listed separately
The data set is described as follows: Stability in mouse plasma incubated at 37 degC by LC/MS method. The format is ADME, cell-free. The conditions noted are these: read-out: Stability.
Take `CCCCCCCCCCCCCCCC(=O)N(CC(=O)NCCCC[C@H](NC(=O)[C@H](C)NC)C(=O)N1CCC[C@H]1C(=O)NC(c1ccccc1)c1ccccc1)CC(=O)NCCCC[C@H](NC(=O)[C@H](C)NC)C(=O)N1CCC[C@H]1C(=O)NC(c1ccccc1)c1ccccc1`: the half-life was under 31 h.

The next data set relates to MDA-MB-231. The data set can be described thus: Growth inhibition of human MDA-MB-231 cells assessed as reduction in cell viability incubated for 48 hrs by PrestoBlue dye based florescence assay. The format is functional. The settings on record: MDA-MB-231, 48 h.
A word on the EC50: it is the midpoint of the concentration-response curve. `CN[C@@H](C)C(=O)N[C@@H](CCCCNC(=O)Nc1ccc(NC(=O)NCCCC[C@H](NC(=O)[C@H](C)NC)C(=O)N2CCC[C@H]2C(=O)NC(c2ccccc2)c2ccccc2)cc1)C(=O)N1CCC[C@H]1C(=O)NC(c1ccccc1)c1ccccc1`: the EC50 is 34.8 µM. Still for that read-out and setting: the figure for `CN[C@@H](C)C(=O)N[C@@H](CCCCNC(=O)OCC1c2ccccc2-c2ccccc21)C(=O)N1CCC[C@H]1C(=O)NC(c1ccccc1)c1ccccc1` is 19 µM; for `CN[C@@H](C)C(=O)N[C@@H](CCCCNC(=O)Nc1ccc(Oc2ccc(NC(=O)NCCCC[C@H](NC(=O)[C@H](C)NC)C(=O)N3CCC[C@H]3C(=O)NC(c3ccccc3)c3ccccc3)cc2)cc1)C(=O)N1CCC[C@H]1C(=O)NC(c1ccccc1)c1ccccc1` it is 14.4 µM; for `CN[C@@H](C)C(=O)N[C@@H](CSCc1ccc(Oc2ccc(CSC[C@H](NC(=O)[C@H](C)NC)C(=O)N3CCC[C@H]3C(=O)NC(c3ccccc3)c3ccccc3)cc2)cc1)C(=O)N1CCC[C@H]1C(=O)NC(c1ccccc1)c1ccccc1` it is 18.4 µM. On to `CCCCCCCCCCCCCCCC(=O)N(CC(=O)NCCCC[C@H](NC(=O)[C@H](C)NC)C(=O)N1CCC[C@H]1C(=O)NC(c1ccccc1)c1ccccc1)CC(=O)NCCCC[C@H](NC(=O)[C@H](C)NC)C(=O)N1CCC[C@H]1C(=O)NC(c1ccccc1)c1ccccc1`, for which the EC50 is 4.2 µM. As to `CN[C@@H](C)C(=O)N[C@@H](CSCc1ccc(CSC[C@H](NC(=O)[C@H](C)NC)C(=O)N2CCC[C@H]2C(=O)NC(c2ccccc2)c2ccccc2)cc1)C(=O)N1CCC[C@H]1C(=O)NC(c1ccccc1)c1ccccc1`, the EC50 came out at 9.6 µM. Still for that read-out and setting: under `CN[C@@H](C)C(=O)N[C@@H](CCCCN)C(=O)N1CCC[C@H]1C(=O)NC(c1ccccc1)c1ccccc1` stands over 100 µM; under `CN[C@@H](C)C(=O)N[C@@H](CCCCNC(=O)CCCCCCC(=O)NCCCC[C@H](NC(=O)[C@H](C)NC)C(=O)N1CCC[C@H]1C(=O)NC(c1ccccc1)c1ccccc1)C(=O)N1CCC[C@H]1C(=O)NC(c1ccccc1)c1ccccc1`, over 100 µM; under `CN[C@@H](C)C(=O)N[C@@H](CSSC(C)(C)C)C(=O)N1CCC[C@H]1C(=O)NC(c1ccccc1)c1ccccc1`, 49.9 µM. The same measure, in the same setting: under `CN[C@@H](C)C(=O)N[C@@H](CCCCNC(=O)O[C@H]1CC[C@@]2(C)C(=CCC3C2CC[C@@]2(C)C3CC[C@@H]2[C@H](C)CCCC(C)C)C1)C(=O)N1CCC[C@H]1C(=O)NC(c1ccccc1)c1ccccc1` (some centres not stated) stands 9.7 µM; under `CN[C@@H](C)C(=O)N[C@@H](CCCCNC(=O)CNCC(=O)NCCCC[C@H](NC(=O)[C@H](C)NC)C(=O)N1CCC[C@H]1C(=O)NC(c1ccccc1)c1ccccc1)C(=O)N1CCC[C@H]1C(=O)NC(c1ccccc1)c1ccccc1`, over 100 µM; under `CCCCCCCCCCCCCCCC(=O)OCCN(CC(=O)NCCCC[C@H](NC(=O)[C@H](C)NC)C(=O)N1CCC[C@H]1C(=O)NC(c1ccccc1)c1ccccc1)CC(=O)NCCCC[C@H](NC(=O)[C@H](C)NC)C(=O)N1CCC[C@H]1C(=O)NC(c1ccccc1)c1ccccc1`, 4.3 µM.

Regarding `CCCCCCCCCCCCCCCCCCCCCCCC(=O)NCCCC[C@H](NC(=O)[C@H](C)NC)C(=O)N1CCC[C@H]1C(=O)NC(c1ccccc1)c1ccccc1`, the EC50 was over 100 µM. Still for that read-out and setting: the figure for `CN[C@@H](C)C(=O)N[C@@H](CS)C(=O)N1CCC[C@H]1C(=O)NC(c1ccccc1)c1ccccc1` is over 100 µM.

Turning to `CN[C@@H](C)C(=O)N[C@@H](CSCCS(=O)(=O)CCSC[C@H](NC(=O)[C@H](C)NC)C(=O)N1CCC[C@H]1C(=O)NC(c1ccccc1)c1ccccc1)C(=O)N1CCC[C@H]1C(=O)NC(c1ccccc1)c1ccccc1`, the half-maximal effective concentration (EC50) came out at 52.4 µM. Same read-out and setting: the figure for `CN[C@@H](C)C(=O)N[C@@H](CCCCNC(=O)NCCCC[C@H](NC(=O)[C@H](C)NC)C(=O)N1CCC[C@H]1C(=O)NC(c1ccccc1)c1ccccc1)C(=O)N1CCC[C@H]1C(=O)NC(c1ccccc1)c1ccccc1` is over 100 µM; for `CN[C@@H](C)C(=O)N[C@@H](CSCc1ccc(-c2ccc(CSC[C@H](NC(=O)[C@H](C)NC)C(=O)N3CCC[C@H]3C(=O)NC(c3ccccc3)c3ccccc3)cc2)cc1)C(=O)N1CCC[C@H]1C(=O)NC(c1ccccc1)c1ccccc1` it is 4 µM; for `CN[C@@H](C)C(=O)N[C@@H](CO)C(=O)N1CCC[C@H]1C(=O)NC(c1ccccc1)c1ccccc1` it is over 100 µM. Take `CN[C@@H](C)C(=O)N[C@@H](CSCc1cccc(Cc2cccc(CSC[C@H](NC(=O)[C@H](C)NC)C(=O)N3CCC[C@H]3C(=O)NC(c3ccccc3)c3ccccc3)c2)c1)C(=O)N1CCC[C@H]1C(=O)NC(c1ccccc1)c1ccccc1`: the EC50 was over 100 µM. Same read-out and setting: the figure for `CCCCCCCCCCCCCCCCSCc1cc(CSC[C@H](NC(=O)[C@H](C)NC)C(=O)N2CCC[C@H]2C(=O)NC(c2ccccc2)c2ccccc2)cc(CSC[C@H](NC(=O)[C@H](C)NC)C(=O)N2CCC[C@H]2C(=O)NC(c2ccccc2)c2ccccc2)c1` is 11.3 µM; for `CN[C@@H](C)C(=O)N[C@@H](CSCC(=O)NCCNC(=O)CSC[C@H](NC(=O)[C@H](C)NC)C(=O)N1CCC[C@H]1C(=O)NC(c1ccccc1)c1ccccc1)C(=O)N1CCC[C@H]1C(=O)NC(c1ccccc1)c1ccccc1` it is over 100 µM. Same read-out and setting: under `CN[C@@H](C)C(=O)N[C@@H](CSCc1cccc(CSC[C@H](NC(=O)[C@H](C)NC)C(=O)N2CCC[C@H]2C(=O)NC(c2ccccc2)c2ccccc2)c1)C(=O)N1CCC[C@H]1C(=O)NC(c1ccccc1)c1ccccc1` stands 7.4 µM; under `CN[C@@H](C)C(=O)N[C@@H](CCCCNC(=N)N)C(=O)N1CCC[C@H]1C(=O)NC(c1ccccc1)c1ccccc1`, over 100 µM.

The subject of another data set is MDA-MB-231. The data set can be described thus: Induction of apoptosis in human MDA-MB-231 cells assessed as increase in caspase-3/7 activity incubated for 24 hrs by luminescence based assay. The format is functional, cell-based.
Settings: not given
`CCCCCCCCCCCCCCCC(=O)N(CC(=O)NCCCC[C@H](NC(=O)[C@H](C)NC)C(=O)N1CCC[C@H]1C(=O)NC(c1ccccc1)c1ccccc1)CC(=O)NCCCC[C@H](NC(=O)[C@H](C)NC)C(=O)N1CCC[C@H]1C(=O)NC(c1ccccc1)c1ccccc1`: the Activity entry was “Dose-dependent effect”.
